Test results taken from patent US8853175B2, “Phenethylsulfone isoindoline derivatives and their use” (Celgene Corporation, priority 2010, dated 2014).

How the values were obtained:
PDE 4 = PDE 4 inhibition assay; type: biochemical, human; conditions: crude PDE 4 enzyme from U937 cells; 1 μM cAMP; read-out: IC50 for inhibiting PDE 4
Description: PDE 4 inhibition may be assays using any methods conventionally known in the art. For example, using a modification of the method of Hill and Mitchell [Hill and Mitchell, Faseb J., 8, A217 (1994)], U937 cells (a human promonocytic cell line) are grown to 1×10^6 cells/mL and collected by centrifugation. A cell pellet of 1×10^9 cells is washed in phosphate buffered saline and then frozen at −70° C. for later purification or immediately lysed in cold homogenization buffer (20 mM Tris-HCl, pH 7.1, 3 mM 2-mercaptoethanol, 1 mM magnesium chloride, 0.1 mM ethylene glycol-bis-(β-aminoethyl ether)-N,N,N^1,N^1-tetraacetic acid (EGTA), 1 μM phenylmethylsulfonyl fluoride (PMSF), and 1 μg/mL leupeptin). Cells are homogenized with 20 strokes in a Dounce homogenizer and the supernatant containing the cytosolic fraction are obtained by centrifugation. The supernatant is then loaded onto a Sephacryl S-200 column equilibrated in homogenization buffer. […]
The phosphodiesterase assay is carried out based on the procedure described by Hill and Mitchell. […] Each data point is carried out in duplicate and activity is expressed as percentage of control. The IC50s of the compounds are then determined from dose response curves of a minimum of three independent experiments.

TNFα = TNFα inhibition assay in PBMC (LPS-stimulated); type: cell-based; conditions: Homo sapiens; PBMC stimulated with LPS 1 ng/ml; TNFα by ELISA; read-out: IC50 for inhibiting TNFα
Description: Peripheral blood mononuclear cells (PBMC) from normal donors are obtained by Ficoll Hypaque (Pharmacia, Piscataway, N.J., USA) density centrifugation. Cells are cultured in RPMI 1640 (Life Technologies, Grand Island, N.Y., USA) supplemented with 10% AB+human serum (Gemini Bio-products, Woodland, Calif., USA), 2 mM L-glutamine, 100 U/ml penicillin, and 100 μg/ml streptomycin (Life Technologies).
PBMC (2×10^5 cells) are plated in 96-well flat-bottom Costar tissue culture plates (Corning, N.Y., USA) in triplicate. Cells are stimulated with LPS (from Salmonella abortus equi, Sigma cat. no. L-1887, St. Louis, Mo. USA) at 1 ng/ml final in the absence or presence of compounds. Compounds provided herein are dissolved in DMSO (Sigma) and further dilutions are done in culture medium immediately before use. The final DMSO concentration in all assays can be about 0.25%. Compounds are added to cells 1 hour before LTS stimulation. Cells are then incubated for 18-20 hours at 37° C. in 5% CO2, and supernatants are then collected, diluted with culture medium and assayed for TNFα levels by ELISA (Endogen, Boston, Mass. USA). IC50s are calculated using non-linear regression, sigmoidal dose-response, constraining the top to 100% and bottom to 0%, allowing variable slope (GraphPad Prism v3.02).

IC50 (PDE 4): ~10 nM
IC50 (TNFα): ~200 nM
Compound: CCOc1cc([C@@H](CS(C)(=O)=O)N2C(=O)c3cccc(NC(=O)CO)c3C2=O)ccc1OC [(1S)—N-{2-[1-(3-Ethoxy-4-Methoxy-Phenyl)-2-Methanesulfonyl-Ethyl]-1,3-Dioxo-2,3-Dihydro-1H-Isoindol-4-yl}-2-Hydroxy-Acetamide]
